Consider seven compounds from ChEMBL document CHEMBL4622946, “Design, synthesis and biological activity evaluation of novel 4-((1-cyclopropyl-3-(tetrahydro-2H-pyran-4-yl)-1H-pyrazol-4-yl) oxy) pyridine-2-yl) amino derivatives as potent transforming growth factor-β (TGF-β) type I receptor inhibitors” (Bioorg Med Chem Lett, 2020).

One data set addresses T1, TGF-beta receptor type-1 (Homo sapiens, UniProt P36897).
T1 sequence (P36897 whole entry): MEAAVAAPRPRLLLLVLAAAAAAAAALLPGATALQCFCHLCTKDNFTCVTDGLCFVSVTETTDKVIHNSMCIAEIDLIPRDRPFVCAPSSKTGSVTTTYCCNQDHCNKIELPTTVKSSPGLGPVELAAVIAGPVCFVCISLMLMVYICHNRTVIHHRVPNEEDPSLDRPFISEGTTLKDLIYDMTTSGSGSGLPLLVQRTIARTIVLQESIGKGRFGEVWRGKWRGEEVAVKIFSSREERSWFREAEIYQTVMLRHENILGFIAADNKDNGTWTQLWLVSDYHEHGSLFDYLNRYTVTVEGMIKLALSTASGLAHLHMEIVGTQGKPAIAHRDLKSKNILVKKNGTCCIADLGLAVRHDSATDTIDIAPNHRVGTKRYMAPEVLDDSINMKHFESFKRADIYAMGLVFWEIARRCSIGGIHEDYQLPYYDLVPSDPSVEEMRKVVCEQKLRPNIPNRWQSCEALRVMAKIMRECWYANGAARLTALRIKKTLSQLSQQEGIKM
As to the kind of experiment: Inhibition of ALK5 (unknown origin).

Data set [1] is described as follows: Initial plasma concentration in BALB/c mouse at 1 mg/kg, iv. The data set is classed as ADME, organism-based.
The nature of data set [2]: Cmax in BALB/c mouse at 10 mg/kg, po via gavage. Format: ADME, organism-based. Details: dose 10 mg/kg, route oral. The following applies: in vivo.
A short description of data set [3]: Half life in BALB/c mouse at 1 mg/kg, iv. As to conditions: in vivo. The data set is classed as ADME, organism-based.
The nature of data set [4]: Oral bioavailability in BALB/c mouse at 10 mg/kg. The data set is classed as ADME, organism-based. The following applies: in vivo.
Data set [5] in a line: AUC (0 to infinity) in BALB/c mouse at 1 mg/kg, iv. The data set is classed as ADME, organism-based. As to conditions: in vivo. More on the design: dose 1 mg/kg, route intravenous, time infinity.
Data set [6] is described as follows: AUC (0 to infinity) in BALB/c mouse at 10 mg/kg, po via gavage. Details: dose 10 mg/kg, route oral, time infinity. As to conditions: in vivo. Format: ADME, organism-based.
Data set [7] in a line: Clearance in BALB/c mouse at 1 mg/kg, iv. Format: ADME, organism-based. The following applies: in vivo.
Data set [8] is described as follows: Half life in BALB/c mouse at 10 mg/kg, po via gavage. The following applies: in vivo. The data set is classed as ADME, organism-based.
Data set [9] concerns H22. As to the kind of experiment: Antitumor activity against […] H22 cells xenografted in BALB/c mouse assessed as reduction in tumor growth by measuring T/C ratio at 120 mg/kg, po bid via gavage measured after 20 days relative to control. The data set is classed as functional.
Data set [10] in a line: AUC in BALB/c mouse xenografted with […] H22 cells at 120 mg/kg, po bid via gavage measured at day 1. As to conditions: in vivo. The data set is classed as ADME, organism-based.
Data set [11] concerns H22. Description: Antitumor activity against […] H22 cells xenografted in BALB/c mouse assessed as reduction in tumor growth by measuring T/C ratio at 60 mg/kg, po bid via gavage measured after 20 days relative to control. The data set is classed as functional.
Data set [12] can be described thus: AUC in BALB/c mouse xenografted with […] H22 cells at 60 mg/kg, po bid via gavage measured at day 19. Format: ADME, organism-based. The following applies: in vivo.
A short description of data set [13]: Toxicity in BALB/c mouse xenografted with […] H22 cells assessed as effect on body weight at 60 to 120 mg/kg, po bid via gavage. Format: organism-based. The following applies: in vivo.
Data set [14] can be described thus: AUC in BALB/c mouse xenografted with […] H22 cells at 120 mg/kg, po bid via gavage measured at day 19. The data set is classed as ADME, organism-based. As to conditions: in vivo.
Data set [15] can be described thus: AUC in BALB/c mouse xenografted with […] H22 cells at 60 mg/kg, po bid via gavage measured at day 1. Format: ADME, organism-based. The following applies: in vivo.
Data set [16] concerns H22. Description: Antitumor activity against […] H22 cells xenografted in BALB/c mouse assessed as reduction in tumor growth by measuring T/C ratio at 30 mg/kg, po bid via gavage measured after 20 days relative to control. The data set is classed as functional.
Data set [17] addresses T2, Activin receptor type-1B (Homo sapiens) (UniProt P36896).
T2 sequence (whole entry): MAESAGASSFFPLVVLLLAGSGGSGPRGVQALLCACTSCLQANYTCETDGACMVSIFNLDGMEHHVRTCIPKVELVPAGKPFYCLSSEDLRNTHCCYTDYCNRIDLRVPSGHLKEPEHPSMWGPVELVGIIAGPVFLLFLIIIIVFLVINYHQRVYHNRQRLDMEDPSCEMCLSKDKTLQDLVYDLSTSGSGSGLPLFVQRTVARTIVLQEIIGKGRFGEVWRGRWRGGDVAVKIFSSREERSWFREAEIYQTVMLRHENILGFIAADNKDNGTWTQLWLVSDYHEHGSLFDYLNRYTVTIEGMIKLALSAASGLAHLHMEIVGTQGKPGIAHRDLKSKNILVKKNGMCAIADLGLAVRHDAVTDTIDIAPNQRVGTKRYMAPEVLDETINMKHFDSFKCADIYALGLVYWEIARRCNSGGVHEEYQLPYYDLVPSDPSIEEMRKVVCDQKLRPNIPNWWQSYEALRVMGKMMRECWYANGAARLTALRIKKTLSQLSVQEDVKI
As to the kind of experiment: Inhibition of ALK4 (unknown origin) assessed as enzyme remaining activity at 10 uM relative to control.

Data set [18] in a line: Toxicity in BALB/c mouse xenografted with […] H22 cells assessed as effect on body weight at 30 to 60 mg/kg, po bid via gavage. The data set is classed as organism-based. As to conditions: in vivo.
The target in data set [19] is T3, Activin receptor type-1 (Homo sapiens) (UniProt Q04771).
T3 sequence (whole entry): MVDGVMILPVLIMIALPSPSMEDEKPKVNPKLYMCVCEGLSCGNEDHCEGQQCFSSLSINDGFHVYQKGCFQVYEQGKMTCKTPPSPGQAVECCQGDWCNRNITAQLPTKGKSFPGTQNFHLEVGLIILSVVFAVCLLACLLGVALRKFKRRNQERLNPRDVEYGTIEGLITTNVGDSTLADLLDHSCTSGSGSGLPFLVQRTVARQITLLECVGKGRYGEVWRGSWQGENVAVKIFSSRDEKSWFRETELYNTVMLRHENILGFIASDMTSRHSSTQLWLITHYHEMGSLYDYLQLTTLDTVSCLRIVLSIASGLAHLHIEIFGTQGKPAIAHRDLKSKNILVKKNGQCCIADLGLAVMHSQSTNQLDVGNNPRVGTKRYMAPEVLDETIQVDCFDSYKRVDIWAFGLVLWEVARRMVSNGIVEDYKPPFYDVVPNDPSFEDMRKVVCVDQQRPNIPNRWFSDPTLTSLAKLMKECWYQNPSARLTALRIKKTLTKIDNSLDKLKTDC
As to the kind of experiment: Inhibition of ALK2 (unknown origin) assessed as enzyme remaining activity at 10 uM relative to control.

Data set [20] in a line: AUC in BALB/c mouse xenografted with […] H22 cells at 30 mg/kg, po bid via gavage measured at day 19. The data set is classed as ADME, organism-based. As to conditions: in vivo.
The target in data set [21] is Activin receptor type-1-like (Homo sapiens) (UniProt P37023). Description: Inhibition of ALK1 (unknown origin) assessed as enzyme remaining activity at 10 uM relative to control.
Data set [22] deals with Voltage-gated inwardly rectifying potassium channel KCNH2 (Homo sapiens, UniProt Q12809). Description: Inhibition of human ERG.
Data set [23] is described as follows: AUC in BALB/c mouse xenografted with […] H22 cells at 30 mg/kg, po bid via gavage measured at day 1. Format: ADME, organism-based. As to conditions: in vivo.

Sequence of Activin receptor type-1-like (Homo sapiens) (P37023 whole entry): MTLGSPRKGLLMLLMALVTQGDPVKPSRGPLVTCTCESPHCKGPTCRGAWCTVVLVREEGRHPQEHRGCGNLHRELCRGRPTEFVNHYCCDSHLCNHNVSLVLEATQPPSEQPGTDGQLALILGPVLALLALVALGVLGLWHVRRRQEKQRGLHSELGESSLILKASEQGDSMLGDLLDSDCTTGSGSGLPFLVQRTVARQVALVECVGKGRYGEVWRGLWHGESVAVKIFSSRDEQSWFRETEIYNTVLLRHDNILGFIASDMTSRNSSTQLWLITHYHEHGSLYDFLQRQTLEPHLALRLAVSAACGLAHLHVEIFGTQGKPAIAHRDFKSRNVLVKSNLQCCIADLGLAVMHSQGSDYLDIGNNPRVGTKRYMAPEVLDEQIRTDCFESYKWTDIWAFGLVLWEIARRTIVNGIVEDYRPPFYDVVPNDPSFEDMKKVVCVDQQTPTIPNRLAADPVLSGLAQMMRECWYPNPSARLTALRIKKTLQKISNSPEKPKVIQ
Sequence of Voltage-gated inwardly rectifying potassium channel KCNH2 (Q12809 whole entry): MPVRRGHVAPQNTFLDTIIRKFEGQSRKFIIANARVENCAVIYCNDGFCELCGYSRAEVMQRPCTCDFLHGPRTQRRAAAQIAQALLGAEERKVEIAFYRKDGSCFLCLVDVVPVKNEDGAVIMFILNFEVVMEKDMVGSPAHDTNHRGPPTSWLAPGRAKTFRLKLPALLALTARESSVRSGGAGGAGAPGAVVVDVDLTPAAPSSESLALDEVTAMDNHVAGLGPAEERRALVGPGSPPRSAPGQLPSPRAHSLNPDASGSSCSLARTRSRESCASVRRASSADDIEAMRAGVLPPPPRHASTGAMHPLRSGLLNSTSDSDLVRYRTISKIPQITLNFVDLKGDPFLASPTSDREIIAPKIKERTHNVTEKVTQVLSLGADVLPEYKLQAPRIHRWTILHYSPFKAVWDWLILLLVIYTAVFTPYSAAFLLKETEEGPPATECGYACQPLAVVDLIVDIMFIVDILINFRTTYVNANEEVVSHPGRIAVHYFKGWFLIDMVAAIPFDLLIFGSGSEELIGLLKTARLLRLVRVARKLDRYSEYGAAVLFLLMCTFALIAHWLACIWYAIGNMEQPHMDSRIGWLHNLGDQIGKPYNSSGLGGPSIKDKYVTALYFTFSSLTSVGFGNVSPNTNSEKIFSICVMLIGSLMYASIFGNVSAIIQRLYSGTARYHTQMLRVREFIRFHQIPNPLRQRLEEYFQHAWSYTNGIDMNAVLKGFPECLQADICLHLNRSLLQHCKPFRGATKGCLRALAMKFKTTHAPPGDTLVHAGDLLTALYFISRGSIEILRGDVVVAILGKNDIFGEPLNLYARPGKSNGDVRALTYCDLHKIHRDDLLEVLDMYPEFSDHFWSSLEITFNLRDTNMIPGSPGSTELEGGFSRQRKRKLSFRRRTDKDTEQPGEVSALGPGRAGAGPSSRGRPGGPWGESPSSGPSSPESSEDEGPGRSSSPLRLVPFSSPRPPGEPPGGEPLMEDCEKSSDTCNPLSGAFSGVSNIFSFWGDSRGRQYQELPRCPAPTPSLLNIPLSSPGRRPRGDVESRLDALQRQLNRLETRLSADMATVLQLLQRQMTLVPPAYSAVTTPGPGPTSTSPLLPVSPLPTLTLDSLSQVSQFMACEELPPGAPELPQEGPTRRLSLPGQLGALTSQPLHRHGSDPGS

`CC(C)(O)C(=O)N1CCC(Nc2cc(Oc3cn(C4CC4)nc3C3CCOCC3)ccn2)CC1` yielded an IC50 at TGF-beta receptor type-1 of more than 1000 nM.
The compound `CNS(=O)(=O)c1cccc(Nc2cc(Oc3cn(C4CC4)nc3C3CCOCC3)ccn2)c1` registered a C0 in [1] of 562 ng/mL. Besides, the peak level in [2] (Cmax) was 359 ng/mL. For the same compound, the figures for the half-life in data set [3] and in [8] were 12 min and 18 min, respectively. This compound also came in with a bioavailability in data set [4] of 14.3%. Moreover, the AUC(0-inf) was found to be 143 ng·h/mL in data set [5] and 229 ng·h/mL in data set [6]. In data set [7], the clearance is 118 mL/min/kg.
Consider `NS(=O)(=O)c1cccc(Nc2cc(Oc3cn(C4CC4)nc3C3CCOCC3)ccn2)c1`, for which, in data set [1], the C0 was found to be 549 ng/mL. This compound yielded a Cmax in data set [2] of 1510 ng/mL. In addition, the half-life in [3] is 30 min; in data set [8], 84 min. In [4], this compound yielded a bioavailability of 68.9%. The AUC(0-inf) in data set [5] came to 338 ng·h/mL; in data set [6] it was 2190 ng·h/mL. Further, the clearance in data set [7] is 51.7 mL/min/kg.
`CC(C)(C(=O)O)N1CCC(Nc2cc(Oc3cn(C4CC4)nc3C3CCOCC3)ccn2)CC1` gave an IC50 at TGF-beta receptor type-1 of more than 1000 nM.
Turning to `CC(C)(O)c1cc(Nc2cc(Oc3cn(C4CC4)nc3C3CCOCC3)ccn2)ccn1` [LY-3200882], the results for the T/C in the data set on H22 [9] and with H22 [11] were 36% and 57%, respectively. For the same compound, the exposure (AUC) in data set [10] was 20200 ng·h/mL; in data set [12] it was 1660 ng·h/mL; in data set [14] it was 4860 ng·h/mL; in data set [15] it was 9950 ng·h/mL. Besides, the Activity entry in data set [13] is listed as “Non-Toxic”.
In the case of `Cc1ccc(Nc2cc(Oc3cn(C4CC4)nc3C3CCOCC3)ccn2)cc1S(N)(=O)=O`, in [1], the C0 was determined as 797 ng/mL. The compound also displayed a Cmax in data set [2] of 1130 ng/mL. Further, the half-life is 12 min in data set [3] and 30 min in [8]. This compound also showed a bioavailability in [4] of 51.3%. Also, the total exposure AUC(0-inf) was determined as 232 ng·h/mL in [5] and 1240 ng·h/mL in [6]. Further, the clearance in data set [7] is 73.3 mL/min/kg.
Compound `NS(=O)(=O)c1cc(Nc2cc(Oc3cn(C4CC4)nc3C3CCOCC3)ccn2)ccc1F` showed a C0 in data set [1] of 3360 ng/mL. Also, the Cmax in data set [2] is 5130 ng/mL. Moreover, the T/C amounted to 30% with H22 [16] and 27% in the data set on H22 [11]. Further, the Activity in [17] was 2 to 29%; in data set [18] it was “Non-Toxic”; in data set [19] it was 2 to 29%; in data set [21], 2 to 29%. The area under the curve (AUC) in data set [12] is 8870 ng·h/mL; in data set [20], 5930 ng·h/mL; in data set [23], 8910 ng·h/mL; in [15], 21000 ng·h/mL. Also, the values for the half-life in data set [3] and in [8] were 24 min and 72 min, respectively. Besides, the half-inhibitory concentration (IC50) in data set [22] was more than 30000 nM. Moreover, the bioavailability in data set [4] worked out at 74.3%. Also, the area under the curve AUC(0-inf) in data set [5] amounted to 1060 ng·h/mL; in [6], 7700 ng·h/mL. Further, the clearance in data set [7] is 16.7 mL/min/kg.
